Assay results as given in the Kinase Knowledgebase extract (Sharma et al. 2016).

target: MAPK14 (human) (UniProt Q16539); assay: Inhibition of MAPK14 Kinase Activity
Sequence (Q16539 whole entry, looked up): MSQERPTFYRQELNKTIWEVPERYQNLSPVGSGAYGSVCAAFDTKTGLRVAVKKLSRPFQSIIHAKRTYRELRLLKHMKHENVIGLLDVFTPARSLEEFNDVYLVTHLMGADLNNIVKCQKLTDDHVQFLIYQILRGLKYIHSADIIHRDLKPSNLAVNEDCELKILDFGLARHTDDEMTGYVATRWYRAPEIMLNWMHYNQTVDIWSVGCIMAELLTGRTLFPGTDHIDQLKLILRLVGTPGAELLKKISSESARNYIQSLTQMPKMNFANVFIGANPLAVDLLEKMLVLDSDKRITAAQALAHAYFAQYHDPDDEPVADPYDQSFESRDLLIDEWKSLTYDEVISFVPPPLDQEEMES

SMILES	IC50 [µM]
Cc1ccccc1CC1CCC(=O)N(c2c(Cl)cncc2Cl)C1 (centres undefined)	≤ 10
Nc1cc(Cl)c(N2CC(Cc3ccc(F)cc3F)CCC2=O)c(Cl)c1 (centres undefined)	≤ 10
O=C1CSC(Cc2ccc3ccccc3c2)CN1c1c(Cl)cccc1Cl (centres undefined)	≤ 10
CN1CC(Cc2cc(Cl)cc(Cl)c2)CN(c2c(Cl)cccc2Cl)C1=O (centres undefined)	≤ 10
CNc1cc(Cl)c(N2CC(Sc3ccc(F)cc3F)CCC2=O)c(Cl)c1 (centres undefined)	≤ 10
CC(C)(C)OC(=O)Nc1cc(Cl)c(N2CC(Cc3ccccc3F)CCC2=O)c(Cl)c1 (centres undefined)	≤ 10
CN1CC(Cc2ccc(F)cc2F)CN(c2c(Cl)cccc2Cl)C1=O (centres undefined)	≤ 10
CN1CC(Cc2ccc(F)cc2F)CN(c2c(Cl)cc(NC(=O)Cc3ccccc3)cc2Cl)C1=O (centres undefined)	≤ 10
COc1ccccc1CC1CN(c2c(Cl)cccc2Cl)C(=O)CS1 (centres undefined)	≤ 10
CN1CC(Cc2ccc(Cl)cc2)CN(c2c(Cl)cccc2Cl)C1=O (centres undefined)	≤ 10
COc1ccccc1CC1CNC(=O)N(c2c(Cl)cccc2Cl)C1 (centres undefined)	≤ 10
O=C1CC/C(=C\c2ccc(F)cc2F)CN1c1c(Cl)cccc1Cl	≤ 10
O=C1CCC(Cc2ccc(F)cc2)CN1c1c(Cl)csc1Cl (centres undefined)	≤ 10
O=C1CCC(Oc2ccc(Cl)cc2Cl)CN1C1C(Cl)CCCC1Cl (centres undefined)	≤ 10
Cc1cccc(C)c1N1CC(Cc2ccccc2Br)CCC1=O (centres undefined)	≤ 10
O=C1CCC(Sc2ccccc2Cl)CN1c1c(Cl)cccc1Cl (centres undefined)	≤ 10
CN(C)CCNC(=O)CNc1cc(Cl)c(N2CC(Cc3ccc(F)cc3F)CCC2=O)c(Cl)c1 (centres undefined)	≤ 10
CC(=O)Nc1ccc(Cl)c(N2CC(Cc3ccc(F)cc3F)COC2=O)c1Cl (centres undefined)	≤ 10
O=C(Cc1ccccc1)Nc1ccc(Cl)c(N2CC(Cc3ccc(F)cc3F)OCC2=O)c1Cl (centres undefined)	≤ 10
CN(C)CCCc1cc(Cl)c(N2CC(Cc3ccc(F)cc3F)CCC2=O)c(Cl)c1 (centres undefined)	≤ 10
Cc1ccccc1OC1CCC(=O)N(C2C(Cl)CCCC2Cl)C1 (centres undefined)	≤ 10
O=C1NCC(Cc2ccc(F)cc2F)CN1c1c(Cl)cc(Br)cc1Cl (centres undefined)	≤ 10

SMILES	IC50 [µM]
O=C1OCC(Cc2ccc3ccccc3c2)CN1c1c(Cl)cccc1Cl (centres undefined)	≤ 10
Cc1ccccc1OC1CCC(=O)N(c2c(Cl)cccc2Cl)C1 (centres undefined)	≤ 10
O=C1CCC(Sc2ccccc2)CN1C1C(Cl)CCCC1Cl (centres undefined)	≤ 10
O=C1CCC(Oc2ccc(F)cc2F)CN1c1c(Cl)sc(O)c1Cl (centres undefined)	≤ 10
O=C1CCC(Nc2ccc(F)cc2F)CN1c1c(Cl)cccc1Cl (centres undefined)	≤ 10
CNC(=O)CNc1cc(Cl)c(N2CC(Cc3ccc(F)cc3F)CCC2=O)c(Cl)c1 (centres undefined)	≤ 10
Cc1cc(C#CCCO)cc(C)c1N1CC(Cc2ccc(F)cc2F)CCC1=O (centres undefined)	≤ 10
O=C1CCC(Cc2ccc(Cl)cc2)CN1c1c(Cl)csc1Cl (centres undefined)	≤ 10
COc1ccccc1CC1CCC(=O)N(c2c(Cl)csc2Cl)C1 (centres undefined)	≤ 10
O=C1CCC(Oc2cccc3ccccc23)CN1c1c(Cl)csc1Cl (centres undefined)	≤ 10
O=C1CCC(Sc2ccccc2)CN1c1c(Cl)ccnc1Cl (centres undefined)	≤ 10
COc1ccc(CC2CCC(=O)N(C3C(Cl)CCCC3Cl)C2)cc1 (centres undefined)	≤ 10
O=C1CCC(Oc2ccccc2Cl)CN1c1c(Cl)cccc1Cl (centres undefined)	≤ 10
Nc1sc(Cl)c(N2CC(Sc3ccc(F)cc3F)CCC2=O)c1Cl (centres undefined)	≤ 10
O=C(O)CCC(=O)Nc1cc(Cl)c(N2CC(Cc3ccc(F)cc3F)CCC2=O)c(Cl)c1 (centres undefined)	≤ 10
Nc1ccc(Cl)c(N2CC(Cc3ccc(F)cc3F)CNC2=O)c1Cl (centres undefined)	≤ 10
COc1ccccc1OC1CCC(=O)N(c2c(Cl)ccnc2Cl)C1 (centres undefined)	≤ 10
CNc1cnc(Cl)c(N2CC(Sc3ccc(F)cc3F)CCC2=O)c1Cl (centres undefined)	≤ 10
O=C1CCC(Cc2ccc(Cl)cc2)CN1C1C(Cl)CCCC1Cl (centres undefined)	≤ 10
Cc1ccc(OC2CCC(=O)N(c3c(Cl)cccc3Cl)C2)cc1 (centres undefined)	≤ 10
Cc1ccccc1SC1CCC(=O)N(c2c(Cl)ccnc2Cl)C1 (centres undefined)	≤ 10
O=C1CCC(Oc2ccc(F)cc2F)CN1c1c(Cl)cccc1Cl (centres undefined)	≤ 10

SMILES	IC50 [µM]
CN1CC(Cc2ccccc2)CN(c2c(Cl)cccc2Cl)C1=O (centres undefined)	≤ 10
CC(C)(C)OC(=O)Nc1cc(Cl)c(N2CC(Cc3ccc(F)cc3F)CCC2=O)c(Cl)c1 (centres undefined)	≤ 10
Cc1ccc(CC2CN(C)C(=O)N(c3c(Cl)cccc3Cl)C2)cc1 (centres undefined)	≤ 10
O=C1CCC(Cc2ccc(F)cc2F)CN1c1c(Cl)cc(CO)cc1Cl (centres undefined)	≤ 10
O=C1CCC(Oc2ccc(F)cc2)CN1c1c(Cl)cncc1Cl (centres undefined)	≤ 10
CN1CC(Cc2ccc(F)cc2F)CN(c2c(Cl)ccc(O)c2Cl)C1=O (centres undefined)	≤ 10
Cc1cccc(C)c1N1CC(Cc2ccccc2O)CCC1=O (centres undefined)	≤ 10
CC(C)(C)OC(=O)Nc1cc(Cl)c(N2CC(C(O)c3ccc(F)cc3F)CCC2=O)c(Cl)c1 (centres undefined)	≤ 10
O=C1CCC(Oc2ccc(F)cc2F)CN1c1c(Cl)cc(CO)cc1Cl (centres undefined)	≤ 10
Cc1cc(C#CCCN(C)C)cc(C)c1N1CC(Cc2ccc(F)cc2F)CCC1=O (centres undefined)	≤ 10
Cc1cccc(NC(=O)NCc2ccccc2CC2CCC(=O)N(c3c(Cl)cccc3Cl)C2)c1 (centres undefined)	≤ 10
Nc1ccc(Cl)c(N2CC(Cc3ccc(F)cc3F)CCC2=O)c1 (centres undefined)	≤ 10
Cc1cccc(C)c1N1CC(/C=C/Cc2ccccc2)(CO)CCC1=O (centres undefined)	≤ 10
O=C1CCC(Oc2ccccc2F)CN1c1c(Cl)cncc1Cl (centres undefined)	≤ 20
CN(C)CCCNc1cc(Cl)c(N2CC(Cc3ccc(F)cc3F)CCC2=O)c(Cl)c1 (centres undefined)	≤ 10
CC(=O)NCCN(C(=O)OC(C)(C)C)c1cc(Cl)c(N2CC(Cc3ccc(F)cc3F)CCC2=O)c(Cl)c1 (centres undefined)	≤ 10
O=C1CCC(Sc2cc(F)cc(F)c2)CN1c1c(Cl)csc1Cl (centres undefined)	≤ 10
O=C1CSC(Cc2ccccc2Cl)CN1c1c(Cl)cccc1Cl (centres undefined)	≤ 10
Nc1ncc(Cl)c(N2CC(Oc3ccc(F)cc3F)CCC2=O)c1Cl (centres undefined)	≤ 10
O=C1CCC(Oc2ccc(F)cc2F)CN1c1c(Cl)cc(O)cc1Cl (centres undefined)	≤ 10
COc1ccc(SC2CCC(=O)N(c3c(Cl)cccc3Cl)C2)cc1 (centres undefined)	≤ 10
O=C(CCCO)Nc1cc(Cl)c(N2CC(Cc3ccc(F)cc3F)CCC2=O)c(Cl)c1 (centres undefined)	≤ 10

Results, then the compound that gave them:

IC50 [µM]	SMILES
≤ 10	Cc1cc(C)cc(CC2CN(C)C(=O)N(c3c(Cl)cccc3Cl)C2)c1 (centres undefined)
≤ 10	Cc1cc(CCCN(C)C)cc(C)c1N1C[C@@H](Cc2ccc(F)cc2F)C[C@@H](C)C1=O
≤ 10	Cc1cccc(C)c1N1CC(Cc2ccccc2C(=O)O)CCC1=O (centres undefined)
≤ 10	O=C1CCC(Cc2cc(Cl)cc(Cl)c2)CN1C1C(Cl)CCCC1Cl (centres undefined)
≤ 10	O=C1CCC(Oc2ccc3ccccc3c2)CN1c1c(Cl)cncc1Cl (centres undefined)
≤ 10	Cn1nc(C(C)(C)C)cc1NC(=O)NCc1ccccc1CC1CCC(=O)N(c2c(Cl)cccc2Cl)C1 (centres undefined)
≤ 10	COc1ccccc1OC1CCC(=O)N(c2c(Cl)cccc2Cl)C1 (centres undefined)
≤ 10	Cc1ccccc1CC1CN(c2c(Cl)cccc2Cl)C(=O)CS1 (centres undefined)
≤ 10	O=C1CCC(Sc2ccc(Cl)cc2Cl)CN1C1C(Cl)CCCC1Cl (centres undefined)
≤ 10	CN1CC(Cc2cccc3ccccc23)CN(c2c(Cl)cccc2Cl)C1=O (centres undefined)
≤ 10	O=C1CCC(Cc2ccccc2)CN1c1c(F)cccc1F (centres undefined)
≤ 10	CS(=O)(=O)Nc1cc(Cl)c(N2CC(Cc3ccc(F)cc3F)CCC2=O)c(Cl)c1 (centres undefined)
≤ 10	CNc1cc(Cl)c(N2CC(Cc3ccc(F)cc3F)CSC2=O)c(Cl)c1 (centres undefined)
≤ 10	COc1ccccc1CC1CCC(=O)N(c2c(Cl)cncc2Cl)C1 (centres undefined)
≤ 10	Cc1cc(/C=C/C(=O)O)cc(C)c1N1CC(Cc2ccc(F)cc2F)CCC1=O (centres undefined)
≤ 10	Cc1ccc(OC2CCC(=O)N(c3c(Cl)cccc3Cl)C2)c(C)c1 (centres undefined)
≤ 10	Cc1ccccc1SC1CCC(=O)N(c2c(Cl)csc2Cl)C1 (centres undefined)
≤ 10	O=C1SCC(Cc2ccc(F)cc2F)CN1c1c(Cl)cc(CO)cc1Cl (centres undefined)
≤ 10	O=C1CCC(Sc2ccc(F)cc2F)CN1c1c(Cl)ccc(CO)c1Cl (centres undefined)
≤ 10	Cc1cc(Br)cc(C)c1N1CC(Cc2ccc(F)cc2F)CCC1=O (centres undefined)
≤ 10	O=C1CCC(Cc2cc(F)cc(F)c2)CN1c1c(Cl)cncc1Cl (centres undefined)
≤ 10	O=C1CCC(Sc2ccc(F)cc2F)CN1c1c(Cl)cccc1Cl (centres undefined)
≤ 10	O=C1CCC(Cc2ccccc2Cl)CN1C1C(Cl)CCCC1Cl (centres undefined)
≤ 10	NC(=O)NCCNc1cc(Cl)c(N2CC(Cc3ccc(F)cc3F)CCC2=O)c(Cl)c1 (centres undefined)

IC50 [µM]	SMILES
≤ 10	CN1CC(Cc2ccccc2Cl)CN(c2c(Cl)cccc2Cl)C1=O (centres undefined)
≤ 10	Cc1cc(C)cc(OC2CCC(=O)N(c3c(Cl)cncc3Cl)C2)c1 (centres undefined)
≤ 10	O=C1CCC(Sc2ccc(F)cc2F)CN1c1c(Cl)cc(O)cc1Cl (centres undefined)
≤ 10	NNC(=O)CNc1cc(Cl)c(N2CC(Cc3ccc(F)cc3F)CCC2=O)c(Cl)c1 (centres undefined)
≤ 10	O=C1COC(Cc2cc(Cl)cc(Cl)c2)CN1c1c(Cl)cccc1Cl (centres undefined)
≤ 10	O=C1CCC(Oc2ccc(F)cc2F)CN1c1c(Cl)ncc(O)c1Cl (centres undefined)
≤ 10	O=C1CCC(Cc2ccccc2F)CN1c1c(Cl)cncc1Cl (centres undefined)
≤ 10	O=C1COC(Cc2ccccc2)CN1c1c(Cl)cccc1Cl (centres undefined)
≤ 10	O=C1CCC(Sc2cc(Cl)cc(Cl)c2)CN1c1c(Cl)cccc1Cl (centres undefined)
≤ 10	COc1ccc(CC2CN(c3c(Cl)cccc3Cl)C(=O)CS2)cc1 (centres undefined)
≤ 10	O=C1CSC(Cc2ccc(F)cc2F)CN1c1c(Cl)cc(CO)cc1Cl (centres undefined)
≤ 10	CC(=O)Nc1sc(Cl)c(N2CC(Oc3ccc(F)cc3F)CCC2=O)c1Cl (centres undefined)
≤ 10	O=C1[C@@H](O)C[C@@H](Cc2ccc(F)cc2F)CN1c1c(Cl)cccc1Cl
≤ 10	O=C1CCC(Cc2cccc3ccccc23)CN1c1c(Cl)csc1Cl (centres undefined)
≤ 10	Cc1cc(C#CCCCO)cc(C)c1N1CC(Cc2ccc(F)cc2F)CCC1=O (centres undefined)
≤ 10	O=C1CCC(Oc2ccc(F)cc2F)CN1C1C(Cl)CC(CO)CC1Cl (centres undefined)
≤ 10	O=C1CCC(Oc2ccc(F)cc2F)CN1c1c(Cl)csc1Cl (centres undefined)
≤ 10	Cc1ccccc1CC1CCC(=O)N(c2c(Cl)ccnc2Cl)C1 (centres undefined)
≤ 10	Cc1cc(C#CCN(C)C)cc(C)c1N1C[C@@H](Cc2ccc(F)cc2F)C[C@@H](C)C1=O
≤ 10	CC(C)(C)OC(=O)Nc1ccc(Cl)c(N2CC(Cc3ccc(F)cc3F)CCC2=O)c1 (centres undefined)
≤ 10	CS(=O)(=O)Nc1ccc(Cl)c(N2CC(Cc3ccc(F)cc3F)CCC2=O)c1 (centres undefined)
≤ 10	O=C(Cc1ccccc1)Nc1ncc(Cl)c(N2CC(Cc3ccc(F)cc3F)CCC2=O)c1Cl (centres undefined)
≤ 10	O=C1CCC(C(O)c2ccc(F)cc2F)CN1c1c(Cl)cc(Br)cc1Cl (centres undefined)
≤ 10	O=C1CCC(Oc2ccc(Cl)cc2)CN1c1c(Cl)ccnc1Cl (centres undefined)
